From patent US11844790B2, “Methods of treating hidradenitis suppurativa” (CHEMOCENTRYX, INC., priority 2020, dated 2023)
Marks after values point to notes of the source that are not given here.

Key:
[1] = tested on: patients with moderate-to-severe HS; settings: human, in vivo
Method: (§1) The study is a randomized, double-blind, placebo-controlled, three group Phase 2 trial in approximately 390 subjects with moderate to severe hidradenitis suppurativa (Hurley stage II or III). Subjects will be randomized 1:1:1 to a treatment of 10 mg Avacopan twice daily, 30 mg Avacopan twice daily or placebo for 12 weeks. Other systemic treatments for HS including anti-TNF-αtreatments are prohibited. Stable antibiotic therapy with doxycycline or minocycline is allowed as specified in the protocol. Subjects treated with 10 mg or 30 mg twice daily during the blinded, placebo-controlled 12-week treatment period will be followed by an additional 24-week, active treatment period during which they will continue to receive the same dose regimen, either 10 mg or 30 mg Avacopan twice daily. Subjects on placebo who complete the blinded, placebo-controlled 12-week period will be re-randomized 1:1 to receive 10 mg or 30 mg Avacopan twice daily during the 24-week active treatment period. During the 24-week active treatment period the treatment assignment to 10 mg or 30 mg twice daily will not be disclosed to the patient, study personnel at the site or the sponsor. Thereafter, all subjects will be followed without study drug for 8 weeks before they exit the study.
(§2) The primary objectives of this clinical trial include: • 1. Evaluation of the efficacy of Avacopan compared to placebo in subjects with Hurley Stage II or III hidradenitis suppurativa (HS) based on subjects achieving a Hidradenitis Suppurativa Clinical Response (HiSCR) after 12 weeks of treatment. HiSCR is defined as at least a 50% reduction in abscess and inflammatory nodule (AN) count with no increase in abscess count and no increase in draining fistula count at Week 12 relative to baseline. • 2. Evaluation of the safety of Avacopan compared to placebo in these subjects based on the adverse event incidence, changes from baseline in laboratory parameters, and vital signs Secondary Objectives
The majority of TEAEs were related to underlying HS and were mild to moderate.

[2] = Solubility of Avacopan as a function of pH; assay type: physicochemical; settings: pH value of 3 or above (gastric fluid)
[3] = tested on: patients with moderate HS (Hurley Stage II) or severe HS (Hurley Stage III); experiment: Phase II AURORA clinical trial, Hidradenitis Suppurativa Clinical Response (HiSCR) and secondary efficacy endpoints; assay type: in vivo, human; settings: for HiSCR (%) / HiSCR n/N / HiSCR Δ % vs placebo: week 12
Method: as §1
Subjects will be randomized 1:1:1 to receive 10 mg Avacopan twice daily, 30 mg Avacopan twice daily or matching placebo for 12 weeks in a double-blind, placebo-controlled manner.
as §2
The secondary objectives of this study include: • 1. Evaluation of the efficacy of Avacopan compared to placebo in these subjects include: • a. HiSCR: proportion of subjects achieving HiSCR by each timepoint, • b. The subject's global assessment of skin pain numeric rating scale (NRS), • c. The modified Sartorius score, and • d. Achieving an AN count of 0, 1, or 2 • 2. Assessment of subject reported outcomes including health-related quality-of-life changes based on the Short Form-36 version 2 (SF-36 v2), the EuroQOL-5D-5L (EQ-5D-5L), Hidradenitis Suppurativa Quality of Life (HiSQOL) Index, the Dermatology Life Quality Index (DLQI), and the Work Productivity and Activity Impairment Questionnaire: Specific Health Problem (WPAI: SHP) with Avacopan compared to placebo. • 3. Evaluation of the pharmacokinetic profile of Avacopan in subjects with HS. • 4. Evaluation of the safety and efficacy of Avacopan treatment from Day 1 by each timepoint up to Week 44 in subjects with HS. • 5. Evaluation of the efficacy of avacopan compared to placebo in these subjects include: • a. The Sartorius score, International HS Severity Scoring System (IHS4) score, HS Physician Global Assessment (HS-PGA), • b. Proportion of subjects who experienced flare, who experienced loss of response during Period 2, who received oral antibiotic rescue therapy or lesion intervention, and who received disallowed opioid pain therapy, and • c. The duration of flare in days. • 6. Evaluation of health-economic information. Study Treatments
The International Hidradenitis Suppurativa Severity Score (IHS4) is simple to calculate and validated with the use of existing physician-derived outcomes such as HS-PGA, Hurley classification, MSS or Expert Opinion classification) and patient-reported outcome measure (DLQI). […]

[4] = Avacopan 10 mg BID, All patients
[5] = Avacopan 10 mg BID, Hurley Stage II
[6] = Avacopan 10 mg BID, Hurley Stage III
[7] = Avacopan 30 mg BID, All patients
[8] = Avacopan 30 mg BID, Hurley Stage II
[9] = Avacopan 30 mg BID, Hurley Stage III

solubility [2]: normally insoluble
SMILES: Cc1ccc(NC(=O)[C@H]2CCCN(C(=O)c3c(C)cccc3F)[C@H]2c2ccc(NC3CCCC3)cc2)cc1C(F)(F)F [Avacopan]
safety profile [1]: favorable safety profile | Serious TEAEs ([1]; 12 weeks): 1.5% | Treatment emergent adverse events (TEAEs) of all types ([1]; 12 weeks): 48.5% | primary endpoint: proportion of all patients achieving HiSCR against placebo ([3]; 10 mg BID and 30 mg BID, combined study population (Hurley Stage II plus III), after 12 weeks): not achieved with statistical significance at either dose level | proportion of all patients achieving HiSCR against placebo ([3]; 30 mg BID, combined study population, after 12 weeks): numerical improvement | HiSCR response against placebo ([3]; 30 mg BID, pre-specified population of Hurley Stage III (severe) HS patients): statistically significant higher response than placebo | HiSCR (%) [3, 4]: (22.4) % | HiSCR n/N [3, 4]: 30/134 | HiSCR Δ % vs placebo [3, 4]: −8.2% | HiSCR (%) [3, 5]: (21.4) % | HiSCR n/N [3, 5]: 18/84 | HiSCR Δ % vs placebo [3, 5]: −13.8% | HiSCR (%) [3, 6]: (24.0) % | HiSCR n/N [3, 6]: 12/50 | HiSCR Δ % vs placebo [3, 6]: 1.8% | HiSCR (%) [3, 7]: (35.1) % | HiSCR n/N [3, 7]: 47/134 | HiSCR Δ % vs placebo [3, 7]: 4.4% | HiSCR (%) [3, 8]: (31.0) % | HiSCR n/N [3, 8]: 27/87 | HiSCR Δ % vs placebo [3, 8]: −4.3% | HiSCR (%) [3, 9]: (42.6) % | HiSCR n/N [3, 9]: 20/47 | HiSCR Δ % vs placebo ([3]; Avacopan 30 mg BID, Hurley Stage III, p = 0.0349): 20.3* % | AN (abscesses and inflammatory nodules) count, % change from baseline to week 12 relative to placebo ([3]; Hurley Stage III patients): Favorable reductions | International HS Severity Score (IHS4), % change from baseline to week 12 relative to placebo ([3]; Hurley Stage III patients): Favorable reductions | abscess count, % change from baseline to week 12 relative to placebo ([3]; Hurley Stage III patients): Favorable reductions | draining fistula count, % change from baseline to week 12 relative to placebo ([3]; Hurley Stage III patients): Favorable reductions
